# Data taken from patent US20170128418A1, “COMPOSITIONS AND METHODS FOR IMPROVING LACTATION” (UNIVERSITY OF CINCINNATI, priority 2012, published 2017).
# B1: prolactin (protein, UniProt P01236 29-227, looked up)
# Prolactin: LPICPGGAARCQVTLRDLFDRAVVLSHYIHNLSSEMFSEFDKRYTHGRGFITKAINSCHTSSLATPEDKEQAQQMNQKDFLSLIVSILRSWNEPLYHLVTEVRGMQEAPEAILSKAVEIEEQTKRLLEGMELIVSQVHPETKENEIYPVWSGLPSLQMADEESRLSAYYNLLHCLRRDSHKIDNYLKLLKCRIIHNNNC
# notes: prolactin hormone
# Experiments:
# HC11 cells = experiment: PTHrP gene expression in lactogen-treated HC11 cells (real-time RT-PCR); type: cell-based, mouse; conditions: lactogen-treated rodent HC11 cells
# From the text: (§1) Cell culture. Primary bovine mammary epithelial cells grown in collagen gels were induced to differentiate by release of the gel from the substratum, and treating with lactogenic hormones as described (15,31). The mouse mammary epithelial cells (HC11) were maintained under growth medium conditions, and lactogen-induced by treatment of 3 day confluent cultures with prolactin, insulin, and cortisol as previously described (17).
# (§2) Quantitative real-time RT-PCR amplification. Total RNA was isolated using TRIreagent® (Molecular Research) following manufacturer's procedures. RNA quality was determined through spectrophometric methods on the Nanodrop 2000 (Thermo Scientific). A total of […] was reverse transcribed using the QuantiTect reverse transcription kit (Qiagen). Quantitative real-time RT-PCR was performed using the Applied Biosystems Step One Plus system (Applied Biosystems) using fast SYBR green master mix (Applied Biosystems). The following conditions were utilized: 95′C for 20 sec. followed by 40 cycles of 95′C for 3 sec., 60′C for 30 sec.
# To determine whether PTHrP expression in mammary epithelial cells was directly responsive to 5-HT two cell models of lactogenic mammary epithelium were studied: lactogen-treated rodent HC11 cells, and primary bovine mammary epithelial cells embedded in floating collagen gels. […]
# [1] = test system: primary bovine mammary epithelial cells; experiment: PTHrP gene expression in primary bovine mammary epithelial cells in floating collagen gels (real-time RT-PCR); type: cell-based; conditions: primary bovine mammary epithelial cells embedded in floating collagen gels
# From the text: as §1
# Primary bovine mammary epithelial cells (pBMEC) were obtained as a generous gift from Dr. Robert Collier at the University of Arizona and cultured as previously described (15, 31).
# as §2, with “30 sec. […]” for “30 sec.”
# [2] = test system: vascular smooth muscle cells; conditions: previous study; cited from earlier work
# PTHrP = experiment: 5-HTP injection rescue of TPH1 knockout mice, plasma PTHrP (IRMA); type: in vivo; conditions: TPH1 knockout mice injected with 5-HTP; P<0.0001, R=0.92
# Experimental: TPH1^−/−, and corresponding wild type control animals (C57BL/6J genetic background) were bred and maintained in our animal facility. All experiments were performed under protocols approved by the University of Cincinnati Institutional Animal Care and Use Committee. Plasma was collected for PTHrP assay from non-lactating wild type mice and both wild type and TPH1^−/− animals on day 10 of lactation. Mammary gland tissues (#4 glands counted from most rostral) were collected for immunostaining from TPH1^−/− animals and wild type controls on day 10 of lactation, and were fixed in 4% paraformaldehyde, before being paraffin embedded and sectioned.
# PTHrP IRMA. Plasma PTHrP levels were measured using a two-site immunoradiometric assay specific for PTHrP 1-86 (Becton Dickinson), following the manufacturer's instructions. The detection limit (blank serum+1 standard deviation) was 0.3 pM under the conditions of this assay.
# The conversion of L-tryptophan to 5-hydroxytryptophan (5-HTP) is the rate-limiting step in 5-HT synthesis; therefore we injected 5-HTP to bypass the enzyme deficiency in TPH1 mice, and measured PTHrP plasma levels.
# [3] = Circulating 5-HT and PTHrP in rats fed a 5-HTP supplemented diet; type: in vivo; conditions: rats fed 0.2% 5-HTP diet from d13 pregnancy through d9 lactation vs control breeder diet
# Experimental: FIG. 1 depicts the circulating levels of (A) serum 5-HT and (B) plasma PTHrP in rats fed 0.2% 5-HTP from d13 pregnancy through d9 lactation compared to rats fed a control breeder diet.
# Based on the foregoing results, studies were conducted to establish, in practice, that feeding a diet supplemented with 5-HTP would elevate circulating levels of serotonin (5-HT) and PTHrP. Rats were fed a diet supplemented with 0.2% 5-HTP, and circulating levels of 5-HT (serum) and PTHrP (plasma) in the rats fed 0.2% 5-HTP from d13 pregnancy through d9 lactation were compared to rats fed a control breeder diet.
# [4] = Serum and milk calcium in rats fed a 5-HTP supplemented diet; type: in vivo; conditions: rats fed 0.2% 5-HTP diet from d13 pregnancy, vs control diet
# Experimental: FIG. 2 depicts the serum and milk calcium concentrations in rats fed 0.2% 5-HTP (n=15) from d13 pregnancy-d9 lactation compared to rats fed a control (n=15) breeder diet at (A) day 1 of lactation and (B) day 9 of lactation.
# Based on the foregoing results, studies were conducted to establish, in practice, that feeding a diet supplemented with 5-HTP would elevate circulating calcium levels in lactating animals. Serum and milk calcium concentrations were measured in rats fed a diet supplemented with 0.2% 5-HTP (n=15) from d13 pregnancy-d9 lactation, compared to rats fed a control (n=15) diet. Serum calcium concentrations were elevated by 5-HTP supplementation on dl of lactation, and subsequently, milk calcium levels were elevated by 5-HTP on d9 of lactation (FIG. 2).
# mammary cells = experiment: PTHrP induction by prolactin in mammary epithelium cell cultures; type: cell-based; conditions: conventional cell cultures of mammary epithelium
# From the text: PTHrP is undetectable in the circulation except during lactation, in advanced metastatic disease, or in patients with hyperprolactinemia.
molecule,measurement,setting,value
"NCCc1c[nH]c2ccc(O)cc12 [5-HT, serotonin]",PTHrP gene expression induction,HC11 cells,8 fold
same,PTHrP gene expression induction,[1],20 fold
same,PTHrP expression,[2],induced
"N[C@@H](Cc1c[nH]c2ccc(O)cc12)C(=O)O [5-HTP, 5-Hydroxytryptophan]",plasma PTHrP,PTHrP,time-dependent increase
same,circulating 5-HT (serum),[3],elevation
same,circulating PTHrP (plasma),[3],elevation
same,milk calcium levels,[4]; d9 of lactation,elevated
same,serum calcium concentrations,[4]; dl of lactation,elevated
B1,PTHrP induction,mammary cells,did not induce
